Reference: patent publication US8946238B2, “Pyrazolo[1,5-A]pyrimidines as antiviral agents” (Gilead Sciences, Inc., priority 2011, dated 2015)

System: RSV strain A2
Experiment: RSV antiviral cytoprotection assay in Hep2 cells (RSV-induced cytopathic effect, Cell TiterGlo)
Assay type: cell-based, Respiratory Syncytial Virus (RSV)
Conditions: human respiratory syncytial virus, HEp-2, 0.5 μM compound; RSV A2-infected Hep2 cells; % inhibition calculated from 4-parameter dose response curve, normalized to 0% and 100%; read-out: Percent inhibition at 0.5 μM
Description: Antiviral activity against RSV was determined using an in vitro cytoprotection assay in Hep2 cells. […] The method used was similar to methods previously described in published literature (Chapman et al., Antimicrob Agents Chemother. 2007, 51(9):3346-53.)
Hep2 cells were obtained from ATCC (Manassas, VI) and maintained in MEM media supplemented with 10% fetal bovine serum and penicillin/streptomycin. Cells were passaged twice a week and kept at subconfluent stage. Commercial stock of RSV strain A2 (Advanced Biotechnologies, Columbia, Md.) was titered before compound testing to determine the appropriate dilution of the virus stock that generated desirable cytopathic effect in Hep2 cells.
For antiviral tests, Hep2 cells were seeded into 96-well plates 24 hours before the assay at a density of 3,000 cells/well. On a separate 96 well plate, compounds to be tested were serially diluted in cell culture media. Eight concentrations in 3-fold serial dilution increments were prepared for each tested compound and 100 uL/well of each dilution was transferred in duplicate onto plates with seeded Hep2 cells. Subsequently, appropriate dilution of virus stock previously determined by titration was prepared in cell culture media and 100 uL/well was added to test plates containing cells and serially diluted compounds. Each plate included three wells of infected untreated cells and three wells of uninfected cells that served as 0% and 100% virus inhibition control, respectively. Following the infection with RSV, testing plates were incubated for 4 days in a tissue culture incubator. After the incubation, RSV-induced cytopathic effect was determined using a Cell TiterGlo reagent (Promega, Madison, Wis.) followed by a luminescence read-out. The percentage inhibition was calculated for each tested concentration relative to the 0% and 100% inhibition controls and the EC50 value for each compound was determined by non-linear regression as a concentration inhibiting the RSV-induced cytopathic effect by 50%. Ribavirin (purchased from Sigma, St. Louis, Mo.) was used as a positive control for antiviral activity.
Compounds were also tested for antiviral activity against RSV in Hep2 cells using a 384 well format. Compounds were diluted in DMSO using a 10-step serial dilution in 3-fold increments via automation in 4 adjacent replicates each. Eight compounds were tested per dilution plate. 0.4 uL of diluted compounds were then stamped via Biomek into 384-well plates (Nunc 142761 or 164730 w/lid 264616) containing 20 μL of media (Mediatech Inc. MEM supplemented with Glutamine, 10% FBS and Pen/Strep). DMSO and a suitable positive control compound, such as 80 μM GS-329467 or 10 μM 427346 was used for the 100% and 0% cell killing controls, respectively.
Hep2 cells (1.0×10^5 cells/ml) were prepared as above in batch to at least 40 mls excess of the number of sample plates (8 mls cell mix per plate) and infected with vendor supplied (ABI) RSV strain A2 to arrive at an MOI of 1:1000 (virus:cell #) or 1:3000 (vol virus: cell vol). Immediately after addition of virus, the RSV infected Hep2 cell suspension was added to each stamped 384-well plate at 20 μl per well using a uFlow dispenser, giving a final volume of 40 μL/well, each with 2000 infected cells. The plates were then incubated for 5 days at 37° C. and 5% CO2. Following incubation, the plates were equilibrated to room temperature in a biosafety cabinet hood for 1.5 hrs and 40 μL of Cell-Titer Glo viability reagent (Promega) was added to each well via uFlow. Following a10-20 minute incubation, the plates were read using an EnVision or Victor Luminescence plate reader (Perkin-Elmer). The data was then uploaded and analyzed on the Bioinformatics portal under the RSV Cell Infectivity and 8-plate EC50-Hep2-384 or 8-plate EC50-Hep2-Envision protocols. […]

Compound | inhibition at 0.5 µM
COc1cccc(C(=O)N2CCCC[C@H]2c2cc3nc(N4C[C@@H](C#N)[C@@H](O)C4)c(C)cn3n2)c1C [Compound 165] | 92%
Cc1cn2nc([C@@H]3CCCCN3C(=O)c3ccc(Cl)c(Cl)c3)cc2nc1N1C[C@@H](C#N)[C@@H](O)C1 [Compound 177] | 99%
Cc1cn2nc([C@@H]3CCCCN3C(=O)c3cccc4c3ccn4C)cc2nc1N1C[C@@H](C#N)[C@@H](O)C1 [Compound 185] | 100%
Cc1cc(C(=O)N2CCCC[C@H]2c2cc3nc(N4CC[C@H](N)C4)c(C)cn3n2)c2[nH]ncc2c1 [Compound 64] | 100%
Cc1cn2nc([C@@H]3CCCCN3C(=O)c3cc(Cl)ccc3NS(C)(=O)=O)cc2nc1N1C[C@@H](C#N)[C@@H](OC(=O)CN)C1 [Compound 206] | 100%
Cc1cn2nc([C@@H]3CCCCN3C(=O)c3ccc4ncccc4c3)cc2nc1N1CC[C@H](N)C1 [Compound 68] | 37%
Cc1ccc(S(C)(=O)=O)cc1C(=O)N1CCCC[C@H]1c1cc2nc(N3C[C@@H](C#N)[C@@H](O)C3)c(C)cn2n1 [Compound 138] | 65%
Cc1cn2nc([C@@H]3CCCCN3C(=O)c3cccc4n[nH]cc34)cc2nc1N1C[C@@H](C#N)[C@@H](O)C1 [Compound 175] | 91%
Cc1cn2nc([C@@H]3CCCCN3C(=O)c3ccc(F)c(F)c3C)cc2nc1N1C[C@@H](C#N)[C@@H](O)C1 [Compound 149] | 100%
CCc1ccc(C(=O)N2CCCC[C@H]2c2cc3nc(N4CC[C@H](N)C4)c(C)cn3n2)nc1 [Compound 110] | 36%
COC(=O)[C@H]1C[C@@H](N)CN1c1nc2cc([C@@H]3CCCCN3C(=O)c3cc(Cl)ccc3NS(C)(=O)=O)nn2cc1C [Compound 12] | 89%
COc1ccc(C(=O)N2CCCC[C@H]2c2cc3nc(N4C[C@@H](C#N)[C@@H](O)C4)c(C)cn3n2)c(F)c1 [Compound 126] | 82%
Cc1cn2nc([C@@H]3CCCCN3C(=O)c3[nH]c4c(C)ccc(C)c4c3C)cc2nc1N1CC[C@H](N)C1 [Compound 53] | 25%
Cc1ccc(Br)c(C(=O)N2CCCC[C@H]2c2cc3nc(N4C[C@@H](C#N)[C@@H](O)C4)c(C)cn3n2)c1 [Compound 171] | 100%
Cc1cn2nc([C@@H]3CCCCN3C(=O)c3nccc4ccccc34)cc2nc1N1C[C@@H](C#N)[C@@H](O)C1 [Compound 163] | 100%
Cc1cn2nc([C@@H]3CCCCN3C(=O)c3cc(F)cc4c3OCOC4)cc2nc1N1CC[C@H](N)C1 [Compound 48] | 100%
Cc1cn2nc([C@@H]3CCCCN3C(=O)c3ccc(-c4ccccc4)cn3)cc2nc1N1CC[C@H](N)C1 [Compound 42] | 9%
CN[C@@H]1CCN(c2nc3cc([C@@H]4CCCCN4C(=O)c4cc(Cl)ccc4NS(C)(=O)=O)nn3cc2C)C1 [Compound 10] | 95%
Cc1cn2nc([C@@H]3CCCCN3C(=O)c3cc(Cl)ccc3NS(C)(=O)=O)cc2nc1NC(CN)c1ccccc1 (stereo partly drawn) [Compound 8] | 90%
Cc1cn2nc([C@@H]3CCCCN3C(=O)c3cccc(CO)n3)cc2nc1N1CC[C@H](N)C1 [Compound 70] | 56%
Cc1cn2nc([C@@H]3CCCCN3C(=O)c3cccc4c3OCC(=O)N4)cc2nc1N1CC[C@H](N)C1 [Compound 65] | 97%
Cc1cc(C(=O)N2CCCC[C@H]2c2cc3nc(N4C[C@@H](C#N)[C@@H](O)C4)c(C)cn3n2)c2[nH]ncc2c1 [Compound 143] | 100%
Cc1cn2nc([C@@H]3CCCCN3C(=O)c3cc(Cl)ccc3NS(C)(=O)=O)cc2nc1N1CCN[C@@H](COCc2ccccc2)C1 [Compound 13] | 82%
Cc1cn2nc([C@@H]3CCCCN3C(=O)c3ccccc3OC3CCCC3)cc2nc1N1CC[C@H](N)C1 [Compound 66] | 95%

Compound | inhibition at 0.5 µM
COc1cc2c(cc1C(=O)N1CCCC[C@H]1c1cc3nc(N4C[C@@H](C#N)[C@@H](O)C4)c(C)cn3n1)CCC2 [Compound 132] | 97%
Cc1cn2nc([C@@H]3CCCCN3C(=O)c3ccc4cccnc4n3)cc2nc1N1CC[C@H](N)C1 [Compound 50] | 15%
Cc1cn2nc([C@@H]3CCCCN3C(=O)c3ccc4cccc(F)c4n3)cc2nc1N1C[C@@H](C#N)[C@@H](O)C1 [Compound 133] | 56%
Cc1cc(F)c(F)cc1C(=O)N1CCCC[C@H]1c1cc2nc(N3C[C@@H](C#N)[C@@H](O)C3)c(C)cn2n1 [Compound 153] | 100%
Cc1cn2nc([C@@H]3CCCCN3C(=O)c3csc4c3CCCC4)cc2nc1N1C[C@@H](C#N)[C@@H](O)C1 [Compound 183] | 100%
Cc1cnc2c(C(=O)N3CCCC[C@H]3c3cc4nc(N5CC[C@H](N)C5)c(C)cn4n3)c(Cl)ccc2c1 [Compound 95] | 21%
Cc1cn2nc([C@@H]3CCCCN3C(=O)c3cccc(F)c3Cl)cc2nc1N1CC[C@H](N)C1 [Compound 30] | 100%
Cc1cn2nc([C@@H]3CCCCN3C(=O)c3cc(Cl)ccc3NS(C)(=O)=O)cc2nc1N[C@H]1C[C@@H](N)C1 [Compound 6] | 100%
Cc1cn2nc([C@@H]3CCCCN3C(=O)c3cccc4ccnn34)cc2nc1N1C[C@@H](C#N)[C@@H](O)C1 [Compound 135] | 100%
Cc1cn2nc([C@@H]3CCCCN3C(=O)c3cn4ncccc4n3)cc2nc1N1CC[C@H](N)C1 [Compound 101] | 16%
Cc1cn2nc([C@@H]3CCCCN3C(=O)c3ccc4cnccc4n3)cc2nc1N1CC[C@H](N)C1 [Compound 41] | 4%
COC(=O)[C@H]1C[C@H](N)CN1c1nc2cc([C@@H]3CCCCN3C(=O)c3cc(Cl)ccc3NS(C)(=O)=O)nn2cc1C [Compound 9] | 99%
COc1ccc2ccccc2c1C(=O)N1CCCC[C@H]1c1cc2nc(N3CC[C@H](N)C3)c(C)cn2n1 [Compound 97] | 100%
Cc1cn2nc([C@@H]3CCCCN3C(=O)c3ccccc3Cl)cc2nc1N1CC[C@H](N)C1 [Compound 69] | 100%
Cc1cn2nc([C@@H]3CCCCN3C(=O)c3ncccc3Br)cc2nc1N1C[C@@H](C#N)[C@@H](O)C1 [Compound 154] | 90%
Cc1ccc(Br)c(C(=O)N2CCCC[C@H]2c2cc3nc(N4CC[C@H](N)C4)c(C)cn3n2)c1 [Compound 90] | 100%
Cc1cn2nc([C@@H]3CCCCN3C(=O)c3cc(F)cc4nc(C)c(C)nc34)cc2nc1N1CC[C@H](N)C1 [Compound 62] | 11%
COc1cc2c(cc1C(=O)N1CCCC[C@H]1c1cc3nc(N4CC[C@H](N)C4)c(C)cn3n1)CCC2 [Compound 51] | 100%
Cc1cn2nc([C@@H]3CCCCN3C(=O)c3nn(C)c4ccccc34)cc2nc1N1C[C@@H](C#N)[C@@H](O)C1 [Compound 187] | 100%
Cc1cn2nc([C@@H]3CCCCN3C(=O)c3cccc4[nH]cnc34)cc2nc1N1CC[C@H](N)C1 [Compound 43] | 88%
Cc1cn2nc([C@@H]3CCCCN3C(=O)c3cc(Cl)ccc3C(F)(F)F)cc2nc1N1CC[C@H](N)C1 [Compound 106] | 100%
Cc1cn2nc([C@@H]3CCCCN3C(=O)c3cc(Cl)ccc3NS(C)(=O)=O)cc2nc1N1C[C@@H](C#N)[C@@H](OC(=O)CCC(=O)O)C1 [Compound 207] | 100%
Cc1cn2nc([C@@H]3CCCCN3C(=O)c3ncc(C(F)(F)F)cc3Cl)cc2nc1N1CC[C@H](N)C1 [Compound 105] | 31%
Cc1noc(-c2ccccc2C(=O)N2CCCC[C@H]2c2cc3nc(N4CC[C@H](N)C4)c(C)cn3n2)n1 [Compound 47] | 90%
